Values of other authors as cited in patent publication US20120202218A1, “DETECTION METHOD AND DEVICE BASED ON NANOPARTICLE AGGREGATION” (MODPRO AB, priority 2008, published 2012).

Key:
[1] = biological target: Fab57P; settings: binding to Fab57P, literature
[2] = neutral pH

Substance	Kd [1] [nM]	net charge [2]
H-CRGTGSYNRSSFESSSGLV-NH2 [C-pTMVP]	~1	–
H2N-NAADLEKAIEALEKHLEAKGPCDAAQLEKQLEQAFEAFERAG-COOH (H-NAADLEKAIEALEKHLEAKGPCDAAQLEKQLEQAFEAFERAG-OH) [JR2EC]	–	−5
